Source: patent US20260242440A1, “NOVEL MEANS TO MODULATE NMDA RECEPTOR-MEDIATED TOXICITY” (FUNDAMENTAL PHARMA GMBH, priority 2018, published 2026)
Entries after “also recorded” stand apart in the source; their conditions may differ.

Legend:
[1] = test system: HEK293 cells; assay: Luminescent cytotoxicity assay, HEK293 cells transfected with GRIN1 and GRIN2A or GRIN2B; assay type: cell-based, human; settings: compound added 6 h after transfection; cell death 48 h after transfection
Procedure: HEK293 cells were cultured in Dulbecco's Modified Eagle Medium (DMEM, Gibco™ 41965-039) supplement with 10% Fetal Bovine Serum (FBS, Gibco™, 10270), 1% Sodium Pyruvate (Gibco™, 11360070), 1% MEM NEAA (GibcoT^M, 11140035) and 0.5% Penicillin-Streptomycin (P-S; Sigma, P0781) and Passagel5-25 were used for experiments.
To test the cytotoxicity of compounds according to the present invention, HEK293 cells (70-80% confluent) were transfected 24 hours after plating with both GRIN1 and GRIN2 Å or GRIN2B, respectively (1:[…]) with Lipofectamine 2000 according to manufacturer's instructions. The relative number of dead cells in the population at the indicated time points after transfection was measured with the CytoTox-Glo™ Cytotoxicity assay (Promega, G9290) according to manufacturer's instruction with minor modification. Briefly, 10% of total medium were mixed with 10 μL AAF-amino luciferin to reach a final volume at 200 μL with water, the dead cell relative luminescence units (DRLU) was measured by GloMax (Promega) in a 96 well white bottom polystyrene microplate (Corning Costar®, 3912). After all the measurements, lysis reagents have been added to the cells and 10% of lysate was used for the total cell relative luminescence units (TRLU) measurement. Cell death was calculated by the following equations: […]
For drug testing, P4, P8, P9, P13 and P15 were added to the medium at indicated concentration 6 h after transfection. DRLU, TRLU and cell death were measured and calculated 48 h after transfection.

[2] = molecular target: T1, TRPM4 channel (Homo sapiens, UniProt Q8TD43); assay: TRPM4 channel function, whole-cell patch clamp in PC3 cells; assay type: cell-based; settings: 10 μM compound, pre-incubated 30-60 min
T1 construct: PC3 cells are known to express TRPM4 channels; endogenous in cells; host or cells: PC3 prostate cancer cell line
From the text: To assess any direct impact of compound P4 and compound P15 on TRPM4 channel function independent of NMDA receptors, the inventors used the prostate cancer cell line PC3 and patch clamp recordings. PC3 cells are known to express TRPM4 channels (C. Holzmann et al., Oncotarget. 6, 41783-93 (2015)). TRPM4 currents in turn are characterized by their calcium dependence and outward rectification (P. Launay et al., Cell. 109, 397-407 (2002)). Briefly, whole-cell patch clamp recordings were made from PC3 cells plated on 12 mm round coverslips secured with a platinum ring in a recording chamber (OAC-1, Science Products GmbH) mounted on a fixed-stage upright microscope (BX51WI, Olympus). […] Patch electrodes (3-4 MΩ) were made from 1.5 mm borosilicate glass and filled with cesium-based solutions (in mM: CsCl, 145; NaCl, 8; HEPES, 10; MgCl2, 1; plus either EGTA, 0.2 for a free Ca^2+ concentration of zero; or EGTA, 10 and CaCl2), 9.4 for a calculated free Ca^2+ concentration of 10 μM; Maxchelator, Stanford University). Recordings were made with a Multiclamp 700B amplifier, digitized through a Digidata 1550B and acquired and analyzed using pClamp 10 software (Molecular Devices). Access resistance (range: 10-20 MΩ) was monitored regularly during voltage clamp recordings and data was rejected if changes greater than 20% occurred.

[3] = test system: retinal ganglion cells (RGCs); assay: NMDA-induced degeneration of retinal ganglion cells (RGCs) in mice; assay type: in vivo, mouse; settings: 40 mg/kg i.p. at -16h, -3h, 0 h, +24 h, intravitreal NMDA 20 nmol, 7 days
Procedure: The inventors also assessed, whether compound P4 can protect retinal ganglion cells against NMDA-induced degeneration. For this purpose, 28 C57BL/6J mice (25±3.5 g) were randomly allocated to two groups. All mice received vehicle (sunflower oil containing 5% ethanol) or P4 (40 mg/kg, dissolved in sunflower oil containing 5% ethanol) through intraperitoneal injection at −16h, −3h, 0 h, +3 h and +24 h in a volume of 50 μL each injection. At 0 h, mice received 20 nmol of NMDA (total volume 2.0 μL) by intravitreal injection in the left eye and saline (total volume 2.0 μL) in the right eye. Both eyes were removed from euthanized mice 7 days after intravitreal injections and fixed in formalin for 15 min before retinas were dissected and processed for whole mount immunostaining. Retinas were incubated in blocking solution (10% FBS, 1% Triton-X 100 in PBS) for 6 h, followed by 24 h incubation with anti-Brn3a antibody in blocking solution at 4° C. Retinas were washed 3 times with PBS and incubated with Donkey anti-rabbit Alexa Fluor-594 for 24 h at room temperature. Retinas were washed again, cut and mounted onto slides. […] Brn3a-positive cells were identified and counted with a macro in Cellprofiler. […]

[4] = test system: synaptic NMDA receptor; assay: Gabazine induced calcium influx into mitochondria (synaptic NMDA receptor signalling); assay type: cell-based, mouse; settings: primary cultured neurons, polypeptides expressed via rAAV
Procedure: Gabazine induced mitochondrial Ca^2+ response in primary cultured neurons is recorded and analysed as described in a previous study (Qiu et al, Nat Commun. 2013; 4:2034, incorporated herewith by reference) using a FRET calcium indicator 4mtD3cpv that specifically located to mitochondria. Briefly, mitochondrial Ca^2+ levels were detected with FRET-based and mitochondrial targeted Ca^2+ indicator 4mtD3cpv. 4mtD3cpv were excited at 430±12 nm (CFP) and 500±10 nm (YFP), and emission of CFP (470±12 nm) and YFP (535±15 nm) were separated and filtered using a DualView beam splitter (AHF Analysentechnik and MAG Biosystems), and all fluorescence images were recorded through a 20× water-immersion objective at 1 Hz.
In a further experiment the inventors assessed the impact of the polypeptide comprising the sequence of SEQ ID NO:5 and SEQ ID NO: 54, respectively, on Gabazine induced calcium influx (mitochondria), a measure of synaptic NMDA receptor signalling. The experiment was carried out in primary cultured neurons as described above.

T1 sequence (Q8TD43 whole entry): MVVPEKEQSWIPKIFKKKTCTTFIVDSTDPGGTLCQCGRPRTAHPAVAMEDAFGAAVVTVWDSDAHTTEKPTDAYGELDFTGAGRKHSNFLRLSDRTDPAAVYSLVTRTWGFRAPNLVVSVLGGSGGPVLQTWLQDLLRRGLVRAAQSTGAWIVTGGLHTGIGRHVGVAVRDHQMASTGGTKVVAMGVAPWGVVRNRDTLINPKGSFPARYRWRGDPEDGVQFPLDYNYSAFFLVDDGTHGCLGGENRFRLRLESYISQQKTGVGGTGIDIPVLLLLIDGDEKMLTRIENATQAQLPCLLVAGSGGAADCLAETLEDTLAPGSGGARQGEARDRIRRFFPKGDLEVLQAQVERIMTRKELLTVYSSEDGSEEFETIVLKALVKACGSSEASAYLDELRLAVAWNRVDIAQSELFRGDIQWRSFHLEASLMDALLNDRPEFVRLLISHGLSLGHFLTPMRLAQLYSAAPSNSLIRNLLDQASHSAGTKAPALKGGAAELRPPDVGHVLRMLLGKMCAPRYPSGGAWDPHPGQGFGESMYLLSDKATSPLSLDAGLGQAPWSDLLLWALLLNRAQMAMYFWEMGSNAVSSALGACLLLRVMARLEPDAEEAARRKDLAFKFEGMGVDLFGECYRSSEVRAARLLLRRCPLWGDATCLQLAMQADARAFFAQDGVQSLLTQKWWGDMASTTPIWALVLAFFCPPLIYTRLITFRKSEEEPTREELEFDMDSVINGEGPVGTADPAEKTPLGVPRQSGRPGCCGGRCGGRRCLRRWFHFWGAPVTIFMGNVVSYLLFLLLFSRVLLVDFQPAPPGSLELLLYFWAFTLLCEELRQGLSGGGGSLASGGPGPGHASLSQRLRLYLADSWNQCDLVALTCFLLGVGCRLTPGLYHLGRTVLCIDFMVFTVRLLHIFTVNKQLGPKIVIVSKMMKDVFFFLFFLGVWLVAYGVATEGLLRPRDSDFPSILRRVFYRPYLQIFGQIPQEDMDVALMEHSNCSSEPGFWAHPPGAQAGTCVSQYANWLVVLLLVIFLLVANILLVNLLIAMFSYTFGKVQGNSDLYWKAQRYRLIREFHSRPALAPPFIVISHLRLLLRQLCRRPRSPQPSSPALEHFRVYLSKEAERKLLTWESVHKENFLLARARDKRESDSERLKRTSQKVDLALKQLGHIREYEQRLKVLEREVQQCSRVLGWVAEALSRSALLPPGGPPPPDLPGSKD

CCN(CCN)Cc1cccc(Br)c1 [P4]
NMDA receptor induced cell death [1]: reduced the level of NMDA receptor induced cell death
TRPM4-like outwardly rectifying current activated by 10 μM Ca2+ [2]: not affected
retinal ganglion cell (RGC) degeneration (Brn3a-positive cells) [3]: reduces retinal ganglion cell (RGC) degeneration

SEQ ID NO:5: polypeptide, amino acid residues 633-689 of mouse TRPM4 (NSEERAARLLLRRCPLWGEATCLQLAMQADARAFFAQDGVQSLLTQKWWGEMDSTTP; listed as Mus musculus)
Gabazine induced calcium influx into mitochondria [4]: neither of these polypeptides affects synaptic NMDA receptor signalling; also recorded: not affected
